Measured values as given in ChEMBL document CHEMBL4414656, “Alkaloids from the Branches and Leaves of Elaeocarpus angustifolius” (J Nat Prod, 2019).

Biological target: Cholinesterase (Homo sapiens, UniProt P06276)
Test: Inhibition of human […] BuChE using S-butyrylthiocholine iodide as substrate preincubated for 20 mins followed by substrate addition and measured every 30 secs for 1 hr by Ellman's method

Cholinesterase, sequence (P06276 whole entry): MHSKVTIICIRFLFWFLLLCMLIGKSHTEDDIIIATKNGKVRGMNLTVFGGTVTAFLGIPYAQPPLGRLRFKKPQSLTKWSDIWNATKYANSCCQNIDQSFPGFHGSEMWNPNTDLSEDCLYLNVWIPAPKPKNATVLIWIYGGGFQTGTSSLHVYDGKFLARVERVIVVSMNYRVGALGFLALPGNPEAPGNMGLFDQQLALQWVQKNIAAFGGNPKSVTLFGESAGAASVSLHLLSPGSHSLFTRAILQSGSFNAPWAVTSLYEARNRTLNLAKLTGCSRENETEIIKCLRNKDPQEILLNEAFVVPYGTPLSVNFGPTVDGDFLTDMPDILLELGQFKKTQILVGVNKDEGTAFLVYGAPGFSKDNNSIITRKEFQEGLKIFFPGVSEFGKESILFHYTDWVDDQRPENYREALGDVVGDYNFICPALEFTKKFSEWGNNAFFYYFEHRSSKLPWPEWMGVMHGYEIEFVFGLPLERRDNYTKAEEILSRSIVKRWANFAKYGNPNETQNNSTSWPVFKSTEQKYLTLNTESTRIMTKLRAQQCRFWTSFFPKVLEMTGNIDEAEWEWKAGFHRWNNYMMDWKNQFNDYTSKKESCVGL

| Compound | IC50 |
| --- | --- |
| Cc1cccc(O)c1C(=O)C[C@@H]1CC[C@@H]2[C@H]3C(=O)c4c(C)cccc4O[C@H]3CCN12 | > 50 µM |
| Cc1cccc2c1C(=O)[C@@H]1[C@H](CCN3C(=O)CC[C@@H]13)O2 | > 50 µM |
| Cc1cccc(O)c1C(=O)C[C@H]1CC[C@H]2[C@@H]3C(=O)c4c(C)cccc4O[C@@H]3CCN12 | > 50 µM |
| Cc1cccc2c1C(=O)[C@@H]1[C@H]3CCC(=O)N3CC[C@H]1O2 | > 50 µM |
| Cc1cccc2c1C(=O)[C@@H]1[C@H]3CCC[N@@+]3([O-])CC[C@H]1O2 (racemic) | > 50 µM |
| Cc1cccc(O)c1C(=O)C[C@@H]1CC[C@@H]2[C@H]3C(=O)c4c(C)cccc4O[C@@H]3CCN12 (racemic) | > 50 µM |
| Cc1cccc2c1C(=O)C1=C3CCCN3CCC1O2 (racemic) | 39 µM |
| Cc1cccc2c1C(=O)[C@H]1[C@H](CCN3C(=O)CC[C@H]13)O2 (racemic) | > 50 µM |
| Cc1cccc(O)c1C(=O)CC1CCCN1CCCO (racemic) | > 50 µM |
| Cc1cccc2c1C(=O)CC(CCCNCCCO)O2 (racemic) | > 50 µM |
| Cc1cccc2c1C(=O)[C@H]1[C@@H](CC[N@@+]3([O-])CCC[C@@H]13)O2 (racemic) | 29 µM |
| Cc1cccc2c1C(=O)[C@@H]1[C@H]3CCC[N@+]3([O-])CC[C@H]1O2 (racemic) | > 50 µM |
| Cc1cccc2c1C(=O)[C@@H]1[C@H]3CCCN3CC[C@H]1O2 (racemic) | 35 µM |
| Cc1cccc2c1C(=O)[C@H]1[C@H](CCN3CCC[C@H]13)O2 (racemic) [ISOELAEOCARPINE] | > 50 µM |
